Test results from article PMC5999327 (Organic letters, 2018).
pIC50: −log10 of the molar value.

Legend:
Cal27 cells [1] = test: MTT cytotoxicity assay; format: cell-based; conditions: Homo sapiens, CAL-27, read-out: MTT (Cal27) IC50
Cal27 cells [2] = test: whole cell HDAC assay with Boc-Lys; format: cell-based; conditions: Homo sapiens, CAL-27, read-out: HDAC (Cal27) IC50
Cal27 cells [3] = test: western blotting of α-tubulin and histone H3 acetylation in Cal27; format: cell-based, human; conditions: western blot, Cal27, compared to control
HDAC1 = HDAC1 (Homo sapiens, UniProt Q13547); test: biochemical HDAC assay with ZMAL substrate, HDAC1; conditions: read-out: HDAC1 IC50
Chain of HDAC1 (Q13547 whole entry): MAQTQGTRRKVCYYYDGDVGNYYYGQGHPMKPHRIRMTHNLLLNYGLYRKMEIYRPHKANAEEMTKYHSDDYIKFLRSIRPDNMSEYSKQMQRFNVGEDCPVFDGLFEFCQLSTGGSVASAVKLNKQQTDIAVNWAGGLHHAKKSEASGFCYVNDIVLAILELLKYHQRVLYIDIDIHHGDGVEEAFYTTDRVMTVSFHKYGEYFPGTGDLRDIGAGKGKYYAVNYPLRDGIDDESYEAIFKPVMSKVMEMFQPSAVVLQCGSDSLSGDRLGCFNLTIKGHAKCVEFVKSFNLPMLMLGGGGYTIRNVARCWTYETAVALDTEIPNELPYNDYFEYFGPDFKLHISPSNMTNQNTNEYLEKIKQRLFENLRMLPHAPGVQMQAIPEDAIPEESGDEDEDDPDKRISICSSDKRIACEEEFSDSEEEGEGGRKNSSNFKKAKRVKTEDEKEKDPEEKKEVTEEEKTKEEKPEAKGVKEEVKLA

pIC50 (Cal27 cells [2]) | pIC50 (HDAC1) | Structure (SMILES) | pIC50 (Cal27 cells [1]) | acetylation of α-tubulin (Cal27 cells [3]) | acetylation of histone H3 (Cal27 cells [3])
4.94 | – | CN1CCc2c(c3ccccc3n2Cc2ccc(C(=O)NO)cc2)C1 [Tubastatin A] | 5.27 | preferential hyperacetylation of α-tubulin | –
– | – | O=C(CCCCCCC(=O)Nc1ccccc1)NO [vorinostat] | – | increase in acetylation | increase in acetylation
– | 5.68 | O=C(NO)c1ccc(CC(=O)N(CCO)c2ccccc2)cc1 [HPOB] | – | – | –
5.23 | – | CCCCN(Cc1ccc(C(=O)NO)cc1)C(=O)Nc1ccccc1 [Nexturastat A] | 5.11 | – | –
